# Reference: patent US20140088045A1, “PRODUCT COMPRISING A NICOTINE-CONTAINING MATERIAL AND AN ANTI-CANCER AGENT” (priority 2012, published 2014)
# Tests used:
# [1] = Drug levels in lungs and plasma after inhalation vs oral gavage; assay type: in vivo, mice
# Excerpt: The oral dose was 23 times higher than the inhalational dose.
# A549 xenografts = assay: A549 subcutaneous xenografts, PS V and curcumin; assay type: in vivo, female nude mice; details: for inhibition of tumor growth (in words): A549 xenografts, daily treatment to day 36; for reduction in tumor weight: end of study, vs control
# Description: Polymeric nanoparticles of poly(ε-caprolactone) (11000)-polyethylene glycol (5000) with entrapped curcumin were prepared according to the nanopercipitation-solvent displacement method. […] Then, the mice were inoculated subcutaneously on both flanks with […] cells (2×10^6 each). The treatment was resumed one day after tumor implantation and continued daily until the end of the study.
# [2] = tested on: A549 human lung cancer cells; assay: A549 subcutaneous xenografts, PS V and erlotinib; assay type: in vivo, nude mice; details: by day 14; PS V 80 mg/kg ip, erlotinib 75 mg/kg po, 6 days/week; starting tumor volume subtracted
# Excerpt: TO this end, we inoculated A549 human lung cancer cells subcutaneously into nude mice, following standard protocols.
# NF-κB [3] = assay: NF-κB activation in cultured cells by Electrophoretic Mobility Shift Assay (EMSA); assay type: cell-based, human; details: cultured A549 cells; 1-2× its IC50 concentration for 6 h
# human cancer cells = assay: Cytotoxicity to human cancer cells; assay type: cell-based; details: intact PS V vs its three metabolites
# inflammation = details: applied systemically or topically; cited from earlier work
# NF-κB [4] = assay: NF-κB activation in orthotopic xenografts by immunohistochemistry; assay type: in vivo, nude mice; details: lung tissue of orthotopic A549 xenografts, PS V treatment as in Example 1
# Description: We evaluated the effect of PS V on the activation of NF-κB, the master regulator of inflammation, in cultured A549 human lung cancer cells as well as in human lung cancer xenografts from the same cells.
# We established orthotopic xenografts in nude mice as described in Example 1. Following treatment of the mice with PS V in a similar manner, lung tissue was evaluated by immunohistochemistry, following standard protocols. We used an antibody that assesses activation of NF-κB by phosphorylation (Cell Signaling, Danvers, Mass.). FIG. 10 provides inhibitory effect of PS V on the activation of NF-κB.
# [5] = mouse, in vivo, inhaled or intranasal
# Description: (§1) After 8 min of inhalation treatment, BALB/c nude mice were euthanized at various time points. Drug levels were analyzed by HPLC in plasma and lung tissues.
# [6] = Pharmacokinetic parameters after inhalational administration (HPLC, lung and plasma); details: after 8 min inhalation of PS V
# Description: as §1
# lung cancer = details: pre-clinical models of lung cancer; cited from earlier work
# [7] = Aerosolization of compounds added to smoking tobacco (filter capture, HPLC); assay type: physicochemical; details: lit cigarette, alone or mixed with erlotinib
# Description: We used an experimental system that recapitulates the essential features of the act of smoking (FIG. 8). In this apparatus, smoke from the lit cigarette was drawn through the tubing of the apparatus by external suction. […] The aerosolized test drug was deposited onto this filter. At the conclusion of the study, the filter was removed and the deposited test drug was extracted with acetonitrile and subjected to HPLC analysis, as already described.
# FIG. 8. depicts the apparatus for the aerosolization of anticancer compounds. Upper panel: The test compound is added to the cigarette. […] When the system was turned on, the temperature in the heating chamber reached ˜200° C. Heating energy was provided by the battery through a resistance wire inside the heating chamber. Unimpeded flow of the gas phase in the ceramic chamber was allowed by its design; the arrows depict such flow.
compound,measurement,setting,value
"CCOP(=O)(OCC)OCCCCOC(=O)CC1=C(C)/C(=C/c2ccc([S+](C)[O-])cc2)c2ccc(F)cc21 (stereo not drawn) [PS V, phospho-sulindac]",total drug levels (PS V plus its metabolites) in lungs,[1]; inhalation 6.5 mg/kg compared to oral 150 mg/kg,significantly higher
same,level of intact PS V in lungs,[1]; inhalational 6.5 mg/kg body weight,> 20 nmol/g
same,level of intact PS V in lungs,[1]; oral 150 mg/kg body weight,< 2 nmol/g
same,PS levels in plasma,[1]; plasma,undetectable
same,inhibition of tumor growth (in words),A549 xenografts,small inhibition of tumor growth
same,average tumor volume at the end of the study,"A549 xenografts; day 36, PS V 200 mg/kg/d, curcumin 500 mg/kg/d, control 521±76 mm^3",419±36 mm^3
same,reduction in tumor weight,A549 xenografts,27%
same,reduced tumor volume compared to controls,[2],49%
same,NF-κB activation (EMSA),NF-κB [3],suppressed NF-κB activation
same,"cytotoxicity compared with sulindac, sulindac sulfide XI and sulindac sulfone XII",human cancer cells,more cytotoxic
same,effect on inflammation,inflammation,eliminated or greatly reduced inflammation
same,"activation of NF-κB (phosphorylation, immunohistochemistry)",NF-κB [4],suppresses the activation of NF-κB
"CC1=C(CC(=O)O)c2cc(F)ccc2/C1=C\c1ccc(S(C)(=O)=O)cc1 [Sulindac sulfone XII, sulindac sulfone]",Cmax,[5],4.6 nmol/g
"CC1=C(CC(=O)O)c2cc(F)ccc2/C1=C\c1ccc([S+](C)[O-])cc1 (stereo not drawn) [Sulindac, sulindac]",Tmax,[6]; lung,0 h
same,Tmax,[6]; plasma,0 h
"COc1cc(/C=C/C(=O)CC(=O)/C=C/c2ccc(O)c(OC)c2)ccc1O [curcumin, reference compound]",efficacy as a single agent,lung cancer,< 30%
same,inhibition of tumor growth (in words),A549 xenografts,ineffective
same,reduction in tumor weight,A549 xenografts,not in the curcumin-treated group
"C#Cc1cccc(Nc2ncnc3cc(OCCOC)c(OCCOC)cc23)c1 [erlotinib, reference compound]",reduced tumor volume compared to controls,[2],74%
"CCOP(=O)(OCC)OCCCCOC(=O)c1ccccc1OC(C)=O [phospho-aspirin 119, phospho-aspirin]",effect on inflammation,inflammation,eliminated or greatly reduced inflammation
"CCOP(=O)(OCC)OCCCCNC(=O)C(C)c1ccc(CC(C)C)cc1 (stereo not drawn) [phospho-ibuprofen amide IV, phospho-ibuprofen amide]",aerosolization when added to smoking tobacco,[7],aerosolized successfully
